Values joined by “and” are separate entries in the source; they are usually repeats but may differ in a detail not shown here. Equal values may be shown once.
Assays:
[1] = Briggs-Rauscher Oscillation Reaction Method (BROM) antioxidant capacity; assay type: biochemical; details: for calculated BROM value at product concentration: Arbutin at 0.2 wt. %, BHT at 0.1 wt. %; for BROM value of individual antioxidant: text b80, rounded values used for calculation; for BROM: Table 2, common antioxidants present in body fluids and tissues
Balb/c 3T3 cells = test: 3T3 Neutral Red Uptake Phototoxicity Test (3T3 NRU PT); assay type: cell-based, murine; details: positive control, dose dates 03/10/11, 03/15/11, 03/22/11
Text: The 3T3 Neutral Red Phototoxicity Test (3T3 NRU PT) was used to assess toxicological performance. It is a relatively new assay that was adopted by regulatory agencies such as OECD and FDA as an accepted method for the assessment of phototoxic potential of test substances. It is an in-vitro toxicological assessment test used to determine cytotoxic and photo(cyto)toxicity effect of a test article to murine fibroblasts in the presence or absence of UVA light (99% UVA/1% UVB). The 3T3 Neutral Red Uptake Phototoxicity Assay (3T3 NRU PT) can be utilized to identify the phototoxic effect of a test substance induced by the combination of test substance and light and is based on the comparison of the cytotoxic effect of a test substance when tested after the exposure and in the absence of exposure to a non-cytotoxic dose of UVA/vis light. Cytotoxicity is expressed as a concentration dependent reduction of the uptake of the vital dye—Neutral Red. […]
For both the range finding screen and the definitive test, Balb/c 3T3 cells were seeded in the central 60 wells of duplicate 96-well microplates per test article and maintained in culture for 24 hours. […] After UV irradiation, the treatment medium was replaced with culture medium and after 24 hours, cell viability was determined by neutral red uptake for 3 hours. […]

[2] = Table 2, Water or Lipid; cited from earlier work

## OC[C@H]1O[C@@H](Oc2ccc(O)cc2)[C@H](O)[C@@H](O)[C@@H]1O (racemic) [Arbutin Racemic mixture, Arbutin]
[1]; Table 3, solvent 50% Ethanol
  Result [s/μg] (BROM by Strength): 47 s/µg
[1]; Table 3, solvent Water
  Result [s/μg] (BROM by Strength): 49.4 s/µg

## OC[C@H]1O[C@@H](Oc2ccc(O)cc2)[C@H](O)[C@@H](O)[C@@H]1O [8 Arbutin]
[1]; Table 3, solvent Water
  Result [s/μg] (BROM by Strength): 40.53 s/µg

## NC(=O)NC1NC(=O)NC1=O (centres unmarked) [Allantoin]
[1]; Table 3, solvent Water
  Result [s/μg] (BROM by Strength): 0 s/µg

## OC[C@H]1O[C@@H](Oc2ccc(O)cc2)[C@H](O)[C@@H](O)[C@@H]1O [Arbutin]
[1]
  calculated BROM value at product concentration: 0.1
  BROM value of individual antioxidant: 50 s/µg

## O=C1O[C@H]([C@@H](O)CO)C(O)=C1O [Ascorbic Acid, Ascorbic acid]
[1]
  BROM value: 0.00105 s/µg
  electron scavenging capacity (BROM): do not show measurable electron scavenging capacity
  BROM: 0.00105 s/µg
[1]; Table 3, solvent Water
  Result [s/μg] (BROM by Strength): 0.00105 s/µg

## O=C1O[C@H]([C@@H](O)CO)C(O)=C1O[C@H]1O[C@H](CO)[C@@H](O)[C@H](O)[C@H]1O [Ascorbyl Glucoside]
[1]; Table 3, solvent Water
  Result [s/μg] (BROM by Strength): No clear

## CC(C)c1c(C(=O)Nc2ccccc2)c(-c2ccccc2)c(-c2ccc(F)cc2)n1CC[C@@H](O)C[C@@H](O)CC(=O)O [Atorvastatin (Lipitor), Atorvastatin]
[1]; Table 3, solvent Ethanol
  Result [s/μg] (BROM by Strength): 8.41 s/µg

## Cc1cc(C(C)(C)C)c(O)c(C(C)(C)C)c1 [BHT, butylatedhydroxytoluene]
[1]
  calculated BROM value at product concentration: 0.03
  BROM value of individual antioxidant: 30 s/µg
[1]; Table 3, solvent 50% Ethanol
  Result [s/μg] (BROM by Strength): 34.53 s/µg
[1]; Table 3, solvent Ethanol
  Result [s/μg] (BROM by Strength): 29.4 s/µg

## CN(C)CCCN1c2ccccc2Sc2ccc(Cl)cc21 [CPZ, Chloropromazine]
Balb/c 3T3 cells; +SSL
  EC50 +SSL: 0.394 µg/mL and 0.725 µg/mL and 0.682 µg/mL
Balb/c 3T3 cells; dark
  EC50 No SSL: 19.592 µg/mL and 24.805 µg/mL and 26.457 µg/mL

## O=C[C@H](O)[C@@H](O)[C@H](O)[C@H](O)CO [D-Glucose]
[1]; Table 3, solvent Water
  Result [s/μg] (BROM by Strength): 0 s/µg

## N[C@@H](CCC(=O)N[C@@H](CS)C(=O)NCC(=O)O)C(=O)O [Glutathione]
[2]
  Solubility: Water
[1]
  BROM: 0.000991 s/µg
[1]; Table 3, solvent Water
  Result [s/μg] (BROM by Strength): 0.000991 s/µg

## COc1ccc([C@@H]2CC(=O)c3c(O)cc(O[C@@H]4O[C@H](CO[C@@H]5O[C@@H](C)[C@H](O)[C@@H](O)[C@H]5O)[C@@H](O)[C@H](O)[C@H]4O)cc3O2)cc1O [Hesperidin]
[1]; Table 3, solvent Water
  Result [s/μg] (BROM by Strength): 5.38 s/µg

## Oc1ccc(O)cc1 [Hydroquinone]
[1]; Table 3, solvent 50% Ethanol
  Result [s/μg] (BROM by Strength): 1.1 s/µg
[1]; Table 3, solvent Water
  Result [s/μg] (BROM by Strength): 1.31 s/µg

## COc1ccc(C(=O)c2ccccc2)c(O)c1 [Oxybenzone]
[1]; Table 3, solvent Ethanol
  Result [s/μg] (BROM by Strength): 0 s/µg

## Oc1cccc(O)c1 [Resorcinol]
[1]; Table 3, solvent Water
  Result [s/μg] (BROM by Strength): 30.39 s/µg

## CCCCC(CC)COC(=O)C(C#N)=C(c1ccccc1)c1ccc(OC)cc1 (centres unmarked) [Solastay S1]
[1]; Table 3, solvent Ethanol
  Result [s/μg] (BROM by Strength): 0 s/µg

## CC(C)(C)c1cc(O)ccc1O [Tert-Butylhydroquinone]
[1]; Table 3, solvent Ethanol
  Result [s/μg] (BROM by Strength): 0.13 s/µg

## CC1=C(/C=C/C(C)=C/C=C/C(C)=C/C(=O)O)C(C)(C)CCC1 [Tretinoin]
[1]
  BROM: 0 s/µg
[1]; Table 3, solvent Ethanol
  Result [s/μg] (BROM by Strength): 0 s/µg

## Cc1c(C)c2c(c(C)c1O)CCC(C)(C(=O)O)O2 (centres unmarked) [Trolox]
[1]
  electron scavenging capacity (BROM): do not show measurable electron scavenging capacity
[1]; Table 3, solvent Ethanol
  Result [s/μg] (BROM by Strength): 0.021 s/µg

## COc1c(O)c(C)c(C/C=C(\C)CC/C=C(\C)CC/C=C(\C)CC/C=C(\C)CC/C=C(\C)CC/C=C(\C)CC/C=C(\C)CC/C=C(\C)CC/C=C(\C)CCC=C(C)C)c(O)c1OC [Ubiquinol (coenzyme Q10), Ubiquinol]
[2]
  Solubility: Lipid
[1]
  BROM: 0 s/µg

## O=c1[nH]c(=O)c2[nH]c(=O)[nH]c2[nH]1 [Uric Acid, Uric acid]
[2]
  Solubility: Water
[1]
  BROM: 9.14 s/µg
[1]; Table 3, solvent Water
  Result [s/μg] (BROM by Strength): 9.14 s/µg

## CC(=O)Oc1c(C)c(C)c2c(c1C)CCC(C)(CCC[C@H](C)CCC[C@H](C)CCCC(C)C)O2 (some centres unmarked) [Vitamin E Acetate]
[1]
  electron scavenging capacity (BROM): do not show measurable electron scavenging capacity
[1]; Table 3, solvent Ethanol
  Result [s/μg] (BROM by Strength): 0 s/µg

## Cc1c(C)c2c(c(C)c1O)CC[C@@](C)(CCC[C@H](C)CCC[C@H](C)CCCC(C)C)O2 [α-Tocopherol (vitamin E), α-Tocopherol]
[2]
  Solubility: Lipid
[1]
  BROM value: 0 s/µg
  BROM: 0 s/µg

## Carotenes
[2]
  Solubility: Lipid

Source: patent publication US9116112B2, “UV protective skin treatment compositions and screening methods” (JR Chem LLC, priority 2011, dated 2015)
